Activity calls are given as the source filed them. The rule behind the calls is not given here.
What was measured:
SMMC-7721 [1] = assay: Antiproliferative activity against human SMMC-7721 cells incubated for 72 hrs by MTT assay; type: functional, cell-based
HepG2 = assay: Antiproliferative activity against human HepG2 cells incubated for 72 hrs by MTT assay; type: functional, cell-based
Bel-7402 [2] = assay: Induction of apoptosis in human Bel-7402 cells assessed as necrotic cells at 0.1 uM after 72 hrs by FITC-annexin V/propidium iodide-double staining based flow cytometry (reference value: 2.86%); type: functional
Bel-7402 [3] = assay: Induction of apoptosis in human Bel-7402 cells assessed as necrotic cells at 1 uM after 3 days by […]; type: functional; conditions: time 3 day
Bel-7402 [4] = assay: Inhibition of DNA synthesis in human Bel-7402 cells assessed as Brdu positive cells at 1 uM measured after 1 hrs by propidium iodide staining-based BrdU incorporation assay (reference value: 29.8%); type: functional; set-up: scale not given: the % may be the effect or the level left; conditions: time 30 min, 0.5 h
U-118-MG = assay: Antiproliferative activity against human U-118-MG cells incubated for 72 hrs by MTT assay; type: functional, cell-based
T47D = assay: Antiproliferative activity against human T47D cells incubated for 72 hrs by MTT assay; type: functional, cell-based
Hep 3B2 = assay: Antiproliferative activity against human Hep3B cells incubated for 72 hrs by MTT assay; type: functional, cell-based
Zip177 [5] = assay: Antiproliferative activity against human […] cells incubated for 72 hrs by MTT assay; type: functional, cell-based
Bel-7402 [6] = assay: Cell cycle arrest in human Bel-7402 cells assessed as increase in cell population at S phase at 33 nM by RNase A/propidium iodide staining-based flow cytometric analysis (reference value: 26.3%); type: functional
HL-60 = assay: Antiproliferative activity against human HL-60 cells after 72 hrs by MTT assay; type: functional, cell-based; conditions: HL-60, 72 h
SMMC-7721 [7] = assay: Cell cycle arrest in human SMMC-7721 cells assessed as inhibition of DNA synthesis by measuring increase in cell population at S phase at 20 to 200 nM after 24 hrs by RNase A/propidium iodide staining-based flow cytometric analysis; type: functional
Bel-7402 [8] = assay: Inhibition of colony formation in human Bel-7402 cells upto 1 uM incubated for 24 hrs measured after 12 days by 2D colony formation assay; type: functional, cell-based; conditions: time 12.0 day
K562 [9] = assay: Antiproliferative activity against human K562 cells; type: functional, cell-based
Bel-7402 [10] = assay: Induction of apoptosis in human Bel-7402 cells assessed as early apoptotic cells at 0.01 uM after 72 hrs by FITC-annexin V/propidium iodide-double staining based flow cytometry (reference value: 0.65%); type: functional
K562 [11] = assay: Antiproliferative activity against human K562 cells incubated for 72 hrs by MTT assay; type: functional, cell-based
Bel-7402 [12] = assay: Effect on DNA damage marker protein level in human Bel-7402 cells assessed as phosphorylation of CHK2 at Thr68[…] at 100 fold antiproliferative IC50 after 1 hr by Western blot analysis; type: functional, cell-based
Bel-7402 [13] = assay: Antiproliferative activity against human Bel-7402 cells at 11 to 33 nM by IncuCyte zoom live cell analysis; type: functional, cell-based; conditions: dose nM 11-33
SGC-7901 = assay: Antiproliferative activity against human SGC-7901 cells incubated for 72 hrs by MTT assay; type: functional, cell-based
[14] = Antiproliferative activity against drug-resistant human KB/VCR cells; type: functional, cell-based
SU-DHL-6 = assay: Antiproliferative activity against human SU-DHL-6 cells incubated for 72 hrs by MTT assay; type: functional, cell-based
Bel-7402 [15] = assay: Induction of apoptosis in human Bel-7402 cells assessed as viable cells at 0.01 uM after 72 hrs by FITC-annexin V/propidium iodide-double staining based flow cytometry (reference value: 93.6%); type: functional; conditions: read-out: Activity
Bel-7402 [16] = assay: Induction of apoptosis in human Bel-7402 cells assessed as early apoptotic cells at 1 uM after 72 hrs by FITC-annexin V/propidium iodide-double staining based flow cytometry (reference value: 0.65%); type: functional
BEL-7404 tumor cell line = assay: Antiproliferative activity against human BEL-7404 cells incubated for 72 hrs by MTT assay; type: functional, cell-based
Zip177 [17] = assay: Cell cycle arrest in human Zip177 cells assessed as inhibition of DNA synthesis by measuring increase in cell population at S phase at 20 to 200 nM after 24 hrs by RNase A/propidium iodide staining-based flow cytometric analysis; type: functional
MDA-MB-157 = assay: Antiproliferative activity against human MDA-MB-157 cells incubated for 72 hrs by MTT assay; type: functional, cell-based
Bel-7402 [18] = assay: Cell cycle arrest in human Bel-7402 cells assessed as increase in cell population at S phase at 1.2 nM by RNase A/propidium iodide staining-based flow cytometric analysis (reference value: 26.3%); type: functional
SJRH30 = assay: Antiproliferative activity against human SJRH30 cells incubated for 72 hrs by MTT assay; type: functional, cell-based
Bel-7402 [19] = assay: Induction of apoptosis in human Bel-7402 cells assessed as early apoptotic cells at 0.1 uM after 72 hrs by FITC-annexin V/propidium iodide-double staining based flow cytometry (reference value: 0.65%); type: functional
Bel-7402 [20] = assay: Cell cycle arrest in human Bel-7402 cells assessed as increase in cell population at S phase at 3.7 nM by RNase A/propidium iodide staining-based flow cytometric analysis (reference value: 26.3%); type: functional
SK-OV-3 = assay: Antiproliferative activity against human SK-OV-3 cells incubated for 72 hrs by MTT assay; type: functional, cell-based
Bel-7402 [21] = assay: Cell cycle arrest in human Bel-7402 cells assessed as increase in cell population at S phase at 100 nM by RNase A/propidium iodide staining-based flow cytometric analysis (reference value: 26.3%); type: functional
Bel-7402 [22] = assay: Antiproliferative activity against human Bel-7402 cells incubated for 72 hrs by MTT assay; type: functional, cell-based
KATO III = assay: Antiproliferative activity against human […] cells incubated for 72 hrs by MTT assay; type: functional, cell-based
Bel-7402 [23] = assay: Induction of apoptosis in human Bel-7402 cells assessed as viable cells at 0.1 uM after 72 hrs by FITC-annexin V/propidium iodide-double staining based flow cytometry (reference value: 93.6%); type: functional; conditions: read-out: Activity
Bel-7402 [24] = assay: Induction of apoptosis in human Bel-7402 cells assessed as necrotic cells at 0.01 uM after 72 hrs by FITC-annexin V/propidium iodide-double staining based flow cytometry (reference value: 2.86%); type: functional
HeLa = assay: Antiproliferative activity against human HeLa cells incubated for 72 hrs by MTT assay; type: functional, cell-based
KB = assay: Cell cycle arrest in human KB cells assessed as inhibition of DNA synthesis by measuring increase in cell population at S phase at 1 to 10 nM upto 12 hrs by RNase A/propidium iodide staining-based flow cytometric analysis; type: functional; conditions: dose nM 1-10, time hrs <=12
Huh-7 = assay: Antiproliferative activity against human HuH7 cells incubated for 72 hrs by MTT assay; type: functional, cell-based
Bel-7402 [25] = assay: Induction of apoptosis in human Bel-7402 cells assessed as viable cells at 1 uM after 72 hrs by FITC-annexin V/propidium iodide-double staining based flow cytometry (reference value: 93.6%); type: functional; conditions: read-out: Activity
BXPC-3 = assay: Antiproliferative activity against human BxPC-3 cells incubated for 72 hrs by MTT assay; type: functional, cell-based
MKN-45 = assay: Antiproliferative activity against human MKN-45 cells incubated for 72 hrs by MTT assay; type: functional, cell-based

- IC50 (HL-60): 44 nM
- IC50 (K562 [9]): 13.6 nM
Structure (SMILES): COc1cc2c3c(c4ccc(OCC#N)cc4c2cc1OC)CN1CCC[C@@H]1C3
- inhibition (SMMC-7721 [1]): Active
- inhibition (HepG2): Active
- Activity (Bel-7402 [2]): 3.09%
- Activity (Bel-7402 [3]): 20%
- Activity (Bel-7402 [4]): 8.15%
- inhibition (U-118-MG): Active
- inhibition (T47D): Active
- inhibition (Hep 3B2): Active
- inhibition (Zip177 [5]): Active
- Activity (Bel-7402 [6]): 34%
- Activity (SMMC-7721 [7]): Active
- inhibition (Bel-7402 [8]): Active
- Activity (Bel-7402 [10]): 0.55%
- inhibition (K562 [11]): Active
- Activity (Bel-7402 [12]): inactive
- inhibition (Bel-7402 [13]): Active
- inhibition (SGC-7901): Active
- IC50 [14]: 600 nM
- inhibition (SU-DHL-6): Active
- viability at 0.01 µM (Bel-7402 [15]): 96.3%
- Activity (Bel-7402 [16]): 1.6%
- inhibition (BEL-7404 tumor cell line): Active
- Activity (Zip177 [17]): Active
- inhibition (MDA-MB-157): Active
- Activity (Bel-7402 [18]): 24.5%
- inhibition (SJRH30): Active
- Activity (Bel-7402 [19]): 0.78%
- Activity (Bel-7402 [20]): 27%
- inhibition (SK-OV-3): Active
- Activity (Bel-7402 [21]): 41.3%
- inhibition (Bel-7402 [22]): Active
- inhibition (KATO III): Active
- viability at 0.1 µM (Bel-7402 [23]): 87.8%
- Activity (Bel-7402 [24]): 1.59%
- inhibition (HeLa): Active
- Activity (KB): Active
- inhibition (Huh-7): Active
- viability at 1 µM (Bel-7402 [25]): 79.2%
- inhibition (BXPC-3): Active
- inhibition (MKN-45): Active
